Source: publication PMC7604311, “Caprine Bactenecins as Promising Tools for Developing New Antimicrobial and Antitumor Drugs” (Frontiers in Cellular and Infection Microbiology, 2020)
Converted amounts (≈) assume the structure as drawn. Ends that are not written are not given here. Peptide text beside a SMILES is read from it.

What was measured:
[1] = tested on: U937; experiment: MTT test; format: cell-based, human; conditions: serum-free RPMI-1640, overnight incubation, mean ± SD of three independent tests, read-out: IC50 of cytotoxic action toward U937
Description: Cytotoxic activity of peptides toward various types of eukaryotic cells was assessed using the standard MTT [3-(4,5-Dimethylthiazol-2-yl)-2,5-diphenyltetrazolium bromide] test ([Mosmann, 1983]). Human peripheral blood mononuclear cells (PBMC) were isolated from the peripheral blood of healthy donors. Whole heparinized blood diluted 3-fold with sterile PBS was carefully layered upon the 5 ml of the sterile Ficoll-400 (Pharmacia, Sweden) with a density of 1.077 in a sterile 50 ml conical tube and then centrifuged at 600 g and 4°C for 40 min. The mononuclear “ring” remaining above the Ficoll was collected using a transfer pipette and placed in another tube. Cells were washed twice with sterile PBS, resuspended in RPMI-1640 culture medium and immediately used for the test. Tumor cell lines were purchased from Biolot (Saint Petersburg, Russia) and cultured at 37°C and 5% CO2 in RPMI-1640 medium (Biolot, Saint Petersburg, Russia) supplemented with 10% fetal bovine serum, glutamine, and penicillin-streptomycin combination. For the experiments, cells were washed from the medium they were growing in and resuspended in serum- and antibiotic-free RPMI-1640. Cells were added at not less than 2 × 10^4 per well in sterile flat bottom 96-well microplates containing serial dilutions of tested peptides in RPMI-1640. […] After an additional 4 h incubation, the reaction was stopped by adding isopropanol supplemented with 0.04 M HCl, in which the formazan crystals (formed as a result of MTT reduction in presence of metabolically active cells) were dissolved, and OD at 540 nm was measured. Background absorbance at 690 nm was subtracted from the results to countervail any unspecific OD fluctuations. […]
where ODsample, OD0% viable, and OD100% viable are respectively values of the OD at 540 nm minus the OD at 690 nm for the test sample and negative or positive controls. IC50 toxicity values were determined by nonlinear regression analysis of the dose response curves using Sigma Plot 11 (Systat Software Inc., USA). […]

[2] = tested on: E. coli ML-35p; experiment: Broth microdilution assay (MIC); format: cell-based, Escherichia coli; conditions: 50% MH broth/50% 10 mM Na-P buffer pH 7.4 with 0.1% BSA, 1×10^6 CFU/ml, 20 h, median of 3–6 independent experiments in triplicate
Description: (§1) The minimal inhibitory concentrations (MIC) of peptides were determined using microdilution assay in Müller–Hinton (MH) broth in general accordance with the guidelines of the European Committee for Antimicrobial Susceptibility Testing. Test plates were additionally pretreated with 0.1% bovine serum albumin (BSA) in distilled H2O (incubated for 1 h at 37°C) to reduce possible non-specific binding of peptides to the plastic surface of the wells, as proposed for AMP activity measuring ([Tossi et al., 1997]; [Wiegand et al., 2008]). Two-fold serial dilutions of peptides starting with 2 × stock concentration were prepared in sterile 10 mM sodium phosphate (Na-P) buffer, pH 7.4, with 0.1% BSA. Thus, final solutions contained 50% of Na-P diluted peptide and 50% of MH broth with bacteria. Bacteria for testing were grown overnight, then transferred into a fresh portion of 2.1% MH medium and additionally incubated for 2–3 h to obtain bacterial culture in its mid-logarithmic growth phase, which was diluted down to the final concentration of 1 × 10^6 CFU/ml. Concentration of bacteria in growth medium was calculated based on its absorbance at 620 nm.
After 20 h of incubation of AMPs with bacteria MICs were determined as lowest concentrations of AMPs completely preventing the visible growth of bacteria. Tests were performed in 60-well Terasaki microplates (10 µl end volume, V-shaped bottom; Sarstedt, Germany); dilutions in each test were made in triplicate. Final MIC values were calculated as medians based on the results of 3–5 independent experiments.

[3] = MTT test; format: cell-based; conditions: human, serum-free RPMI-1640, overnight incubation, mean ± SD of three independent tests, read-out: IC50 of cytotoxic action toward human PBMC
Description: Cytotoxic activity of peptides toward various types of eukaryotic cells was assessed using the standard MTT [3-(4,5-Dimethylthiazol-2-yl)-2,5-diphenyltetrazolium bromide] test ([Mosmann, 1983]). Human peripheral blood mononuclear cells (PBMC) were isolated from the peripheral blood of healthy donors. Whole heparinized blood diluted 3-fold with sterile PBS was carefully layered upon the 5 ml of the sterile Ficoll-400 (Pharmacia, Sweden) with a density of 1.077 in a sterile 50 ml conical tube and then centrifuged at 600 g and 4°C for 40 min. The mononuclear “ring” remaining above the Ficoll was collected using a transfer pipette and placed in another tube. Cells were washed twice with sterile PBS, resuspended in RPMI-1640 culture medium and immediately used for the test. Tumor cell lines were purchased from Biolot (Saint Petersburg, Russia) and cultured at 37°C and 5% CO2 in RPMI-1640 medium (Biolot, Saint Petersburg, Russia) supplemented with 10% fetal bovine serum, glutamine, and penicillin-streptomycin combination. For the experiments, cells were washed from the medium they were growing in and resuspended in serum- and antibiotic-free RPMI-1640. Cells were added at not less than 2 × 10^4 per well in sterile flat bottom 96-well microplates containing serial dilutions of tested peptides in RPMI-1640. For the positive control (100% viable cells), RPMI-1640 medium was used instead of the peptide solution, whereas for the negative control (0% viable cells) medium replaced both peptide and cells. Test plates were incubated at 37°C and 5% CO2 overnight, after which MTT metabolic marker in PBS (5 mg/ml) was introduced into each well. After an additional 4 h incubation, the reaction was stopped by adding isopropanol supplemented with 0.04 M HCl, in which the formazan crystals (formed as a result of MTT reduction in presence of metabolically active cells) were dissolved, and OD at 540 nm was measured. Background absorbance at 690 nm was subtracted from the results to countervail any unspecific OD fluctuations. The % of surviving cells was found as:
(2) Survival(%)=(ODsample−OD0% viable)/(OD100% viable−OD0% viable)×100%,
where ODsample, OD0% viable, and OD100% viable are respectively values of the OD at 540 nm minus the OD at 690 nm for the test sample and negative or positive controls. IC50 toxicity values were determined by nonlinear regression analysis of the dose response curves using Sigma Plot 11 (Systat Software Inc., USA). The experiments were repeated three times, with 3 parallels of samples and 4–6 parallels of controls each time.

[4] = tested on: Gram-positive and Gram-negative bacteria; experiment: Geometric mean of MICs (GMIC) over tested strains; format: cell-based; conditions: geometric mean of MICs against all tested bacteria
Description: as §1
After 20 h of incubation of AMPs with bacteria MICs were determined as lowest concentrations of AMPs completely preventing the visible growth of bacteria. […] Final MIC values were calculated as medians based on the results of 3–5 independent experiments.

[5] = tested on: P. aeruginosa MDR 522/17; format: cell-based, Pseudomonas aeruginosa; conditions: MDR 522/17, 24 h
Description: (§2) Quantification of the biofilms forming in the presence of various concentrations of tested AMPs was performed using the crystal violet assay according to general guidelines ([Merritt et al., 2006]). Tests were performed in polystyrene 96-well plates with U-shaped bottom. Peptides were serially diluted in a bacterial growth medium (MH for A. baumannii or TSB for P. aeruguinosa) in a volume of 50 μl per well. Overnight cultures of tested bacteria in a stationary phase of growth were 50 times diluted and introduced into the experimental wells at the same volume of 50 μl. Samples were incubated for 24 h at 37°C. The content of the wells was then shacked out, the plates were gently washed from unattached planktonic bacteria in still water (poured into a large enough vessel); bacterial cells and matrix components adhered to the walls of the wells were stained with a 0.1% aqueous solution of crystal violet dye: 125 μl of dye solution was put into each well and incubated at room temperature for 10 min. After staining dye solution was removed, the plates were washed with clean water and allowed to air-dry. Finally, the bound dye was redissolved by adding 200 μl of 30% acetic acid into each well, incubating it for 15 min at room temperature, and then thoroughly mixing the content of the wells by pipetting. One hundred and twenty five microliters of crystal violet extract from each well were transferred into a flat-bottomed microtiter plate, and the optical density was measured at a wavelength of 560–595 nm (depending on the maximum of absorption in a particular experiment). Experimental samples were made in quadruplicates, and there were 8–9 repeats of control samples without peptides in each test. Presented results are medians calculated based on 3 independent experiments.

[6] = tested on: A. baumannii 7226/16; format: cell-based, Acinetobacter baumannii; conditions: 7226/16, 24 h, 2
Description: as §2, with “After staining dye solution was removed, the plates were washed with clean water and allowed to air-dry. Finally, the bound dye was redissolved by adding 200 μl of 30% acetic acid into each well, incubating it for 15 min at room temperature, and then thoroughly mixing the content of the wells by pipetting.” left out, “Experimental samples were made in quadruplicates, and there were 8–9 repeats of control samples without peptides in each test.” left out

RFRLPFRRPPIRIH-NH2 [ChBac3.4(1-14)-NH2] showed an IC50 [1] of over 64 µM, an MIC [2] of 8 µM and an IC50 [3] of over 64 µM.
For CC[C@H](C)[C@H](NC(=O)[C@H](CCCNC(=N)N)NC(=O)[C@@H](NC(=O)[C@H](Cc1ccccc1)NC(=O)[C@@H]1CCCN1C(=O)[C@@H]1CCCN1C(=O)[C@@H]1CCCN1C(=O)[C@H](Cc1c[nH]cn1)NC(=O)[C@@H](NC(=O)[C@H](CCCNC(=N)N)NC(=O)[C@H](CCCNC(=N)N)NC(=O)[C@H](Cc1ccccc1)NC(=O)[C@@H]1CCCN1C(=O)[C@H](CC(C)C)NC(=O)[C@H](CCCNC(=N)N)NC(=O)[C@H](Cc1ccccc1)NC(=O)[C@@H](N)CCCNC(=N)N)[C@@H](C)CC)C(C)C)C(=O)N[C@@H](Cc1c[nH]cn1)C(=O)N1CCC[C@H]1C(=O)N1CCC[C@H]1C(=O)N1CCC[C@H]1C(=O)N[C@@H](Cc1ccccc1)C(=O)N[C@@H](Cc1ccc(O)cc1)C(=O)N[C@@H](CCCNC(=N)N)C(=O)N[C@@H](CCCNC(=N)N)C(=O)N[C@@H](Cc1ccccc1)C(=O)N[C@@H](CC(C)C)C(=O)O [ChBac3.4-1-COOH (rec)] (H-RFRLPFRRIHPPPFVRIHPPPFYRRFL-OH; N-terminus assumed), the MIC [2] was 4 µM (≈ 14.1 µg/mL), the GMIC total [4] was 5.0 µM and the IC50 [3] was 40.8 ± 9.1 µM.
Work on “RFRRFRLPFRRPPIRIH-NH2 [RFR-ChBac3.4 (1-14)-NH2]” yielded an IC50 [1] of over 64 µM, an MIC [2] of 1 µM and an IC50 [3] of over 64 µM. For the same compound, the Biofilm inhibition [5] was 79 ± 5% and the Biofilm inhibition [6] was 53 ± 3%.
“RFRLPFRRPPIRIHPPPFYPPFRRFL [ChBac3.4-COOH]” gave an MIC [2] of 2 µM and an IC50 [3] of 36.2 ± 6.9 µM.
Compound “RFRLPFRRPPIRIHPPPFY-NH2 [ChBac3.4(1-19)-NH2]” has an IC50 [1] of over 64 µM, an MIC [2] of 4 µM and an IC50 [3] of over 64 µM.
RIHPPPFYPPFRRFL-NH2 [ChBac3.4 (12-26)] gave an MIC [2] of 64 µM and an IC50 [3] of 43.3 ± 7.7 µM.
